{"source": "patent US20080280872A1", "about": "“Benzamide Derivatives and Their Use as Glucokinase Activating Agents” (priority 2004, published 2008)", "key": {"[1]": {"target": "T1, recombinant human pancreatic GLK (Homo sapiens, UniProt P35557)", "T1 construct": "6-His (N); made in house; host or cells: E. coli BL21", "T1 sequence (P35557 1-465)": "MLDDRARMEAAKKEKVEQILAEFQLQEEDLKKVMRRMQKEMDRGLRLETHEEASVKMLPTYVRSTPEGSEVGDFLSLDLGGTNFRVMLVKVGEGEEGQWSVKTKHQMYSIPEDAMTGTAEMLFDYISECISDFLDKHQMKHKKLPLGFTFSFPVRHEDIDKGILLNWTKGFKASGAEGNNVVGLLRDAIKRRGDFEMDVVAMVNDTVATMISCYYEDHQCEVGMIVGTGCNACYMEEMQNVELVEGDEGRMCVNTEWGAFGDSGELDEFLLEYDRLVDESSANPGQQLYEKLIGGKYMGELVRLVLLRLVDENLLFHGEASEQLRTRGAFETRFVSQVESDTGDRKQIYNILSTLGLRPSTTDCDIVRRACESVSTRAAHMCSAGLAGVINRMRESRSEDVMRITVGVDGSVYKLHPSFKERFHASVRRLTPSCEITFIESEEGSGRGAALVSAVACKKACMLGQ", "test": "Enzymatic activity of glucokinase (GLK activation, G-6-P dehydrogenase coupled, OD 340 nm)", "assay_type": "biochemical"}, "[2]": {"tested_on": "Zucker obese fa/fa rats", "test": "Oral Glucose Tolerance Test (OGTT)", "assay_type": "in vivo, rat", "details": "10 mg/kg, given orally 120 minutes before glucose 2 g/kg; percent inhibition of blood glucose AUC vs vehicle", "method": "The animals were fasted for 2 hours before use for experiments. A test compound or a vehicle was given orally 120 minutes before oral administration of a glucose solution at a dose of 2 g/kg body weight. Blood glucose levels were measured using a Accucheck glucometer from tail bled samples taken at different time points before and after administration of glucose (time course of 60 minutes). […] Percent inhibition was determined using the AUC in the vehicle-control group as zero percent inhibition."}, "[3]": {"test": "Oral exposure", "assay_type": "in vivo", "details": "compared with Example II107 in WO 03/015774"}}}
{"smiles": "COC[C@H](C)Oc1cc(Oc2ccc(S(C)(=O)=O)cc2)cc(C(=O)Nc2nccs2)c1", "note": "[Example 11b, 3-[(1S)-2-methoxy-(1-methylethyl)oxy]-5-[4-(methylsulfonyl)phenoxy]-N-1,3-thiazol-2-ylbenzamide]", "values": [{"measurement": "EC50 values, Example 11b compared with Example II107 in WO 03/015774", "setting": "[1]; comparison in words", "value": "broadly similar"}, {"measurement": "EC50", "setting": "[1]; read-out: activating activity for glucokinase, EC50", "value": 0.03, "unit": "µM"}, {"measurement": "OGTT activity", "setting": "[2]", "value": 29, "unit": "%"}, {"measurement": "oral exposure", "setting": "[3]", "value": "superior oral exposure"}]}
